ChEMBL document CHEMBL3885881, “DrugMatrix”

Species: Rattus norvegicus
Assay: DrugMatrix - Regimen: Daily Repeat
Format: toxicity, organism-based, Sprague-Dawley
Design: regimen Daily Repeat, gender Male, age 6-8 weeks
Settings: in vivo, po, route oral GAVAGE, vehicle 100 % SALINE; for ABSOLUTE BASOPHIL / ABSOLUTE EOSINOPHIL / ABSOLUTE LYMPHOCYTE / ABSOLUTE MONOCYTE / ABSOLUTE SEGMENTED NEUTROPHIL / BASOPHIL / EOSINOPHIL / ERYTHROCYTE COUNT / HEMATOCRIT / HEMOGLOBIN / LEUKOCYTE COUNT / MEAN CORPUSCULAR HEMOGLOBIN / MEAN CORPUSCULAR HEMOGLOBIN CONCENTRATION / MEAN CORPUSCULAR VOLUME / MONOCYTE / NEUTROPHIL / NUCLEATED RED BLOOD CELLS / PLATELET COUNT: tissue Blood; for ALANINE AMINOTRANSFERASE / ALBUMIN / ALKALINE PHOSPHATASE / ASPARTATE AMINOTRANSFERASE / BLOOD UREA NITROGEN / CARBON DIOXIDE / CHLORIDE / CHOLESTEROL / CREATINE PHOSPHOKINASE / CREATININE / GLUCOSE / LACTATE DEHYDROGENASE / LIPASE / PHOSPHORUS / POTASSIUM / SODIUM / TOTAL BILIRUBIN / TOTAL PROTEIN / URIC ACID: tissue Plasma
[1] = 0 mg/kg, 72 h, dose level Control, time 3 day
[2] = 0 mg/kg, 120 h, dose level Control, time 5 day
[3] = 40 mg/kg, 72 h, dose level Low, time 3 day

In the case of `Oc1ccccc1O` [CATECHOL], the “ABSOLUTE BASOPHIL” value [1] was 0 CELLS/uL, the “ABSOLUTE EOSINOPHIL” value [1] was 65.67 CELLS/uL and the “ABSOLUTE LYMPHOCYTE” value [1] was 17283.5 CELLS/uL. For the same compound, the “ABSOLUTE MONOCYTE” value [1] was 0 CELLS/uL, the “ABSOLUTE SEGMENTED NEUTROPHIL” value [1] was 1284.17 CELLS/uL and the BASOPHIL [1] was 0%. For the same compound, the EOSINOPHIL [1] was 0.33%, the “ERYTHROCYTE COUNT” value [1] was 5.46 x10E6/uL and the HEMATOCRIT [1] was 34.28%. For the same compound, the HEMOGLOBIN [1] was 13.78 G/DL, the “LEUKOCYTE COUNT” value [1] was 18.63 x10E3/uL and the “MEAN CORPUSCULAR HEMOGLOBIN” value [1] was 25.3 pg. The “MEAN CORPUSCULAR HEMOGLOBIN CONCENTRATION” value [1] was 40.22 G/DL, the “MEAN CORPUSCULAR VOLUME” value [1] was 62.87 fL and the MONOCYTE [1] was 0%. The NEUTROPHIL [1] was 7%, the “NUCLEATED RED BLOOD CELLS” value [1] was 0 /100WBC and the “PLATELET COUNT” value [1] was 1244.83 x10E3/uL. For the same compound, the “ALANINE AMINOTRANSFERASE” value [1] was 52.83 u/L, the ALBUMIN [1] was 4 G/DL and the “ALKALINE PHOSPHATASE” value [1] was 327.67 u/L. The “ASPARTATE AMINOTRANSFERASE” value [1] was 78.83 u/L, the “BLOOD UREA NITROGEN” value [1] was 13.83 mg/dL and the “CARBON DIOXIDE” value [1] was 26.67 mmol/L. The CHLORIDE [1] was 99.67 MEQ/L, the CHOLESTEROL [1] was 69 mg/dL and the “CREATINE PHOSPHOKINASE” value [1] was 350.17 u/L. The CREATININE [1] was 0.21 mg/dL, the GLUCOSE [1] was 173.83 mg/dL and the “LACTATE DEHYDROGENASE” value [1] was 168.33 u/L. It also gave an LIPASE [1] of 11 u/L, a PHOSPHORUS [1] of 12.7 mg/dL and a POTASSIUM [1] of 6.88 MEQ/L. The SODIUM [1] was 141.68 MEQ/L, the “TOTAL BILIRUBIN” value [1] was 0.22 mg/dL and the “TOTAL PROTEIN” value [1] was 6.02 G/DL. The “URIC ACID” value [1] was 1.9 mg/dL, the “ABSOLUTE BASOPHIL” value [2] was 0 CELLS/uL and the “ABSOLUTE EOSINOPHIL” value [2] was 14.83 CELLS/uL. The “ABSOLUTE LYMPHOCYTE” value [2] was 12880 CELLS/uL, the “ABSOLUTE MONOCYTE” value [2] was 90.67 CELLS/uL and the “ABSOLUTE SEGMENTED NEUTROPHIL” value [2] was 864.5 CELLS/uL. For the same compound, the BASOPHIL [2] was 0%, the EOSINOPHIL [2] was 0.17% and the “ERYTHROCYTE COUNT” value [2] was 5.83 x10E6/uL. The HEMATOCRIT [2] was 35.87%, the HEMOGLOBIN [2] was 14 G/DL and the “LEUKOCYTE COUNT” value [2] was 13.85 x10E3/uL. For the same compound, the “MEAN CORPUSCULAR HEMOGLOBIN” value [2] was 24.03 pg, the “MEAN CORPUSCULAR HEMOGLOBIN CONCENTRATION” value [2] was 39.03 G/DL and the “MEAN CORPUSCULAR VOLUME” value [2] was 61.53 fL. For the same compound, the MONOCYTE [2] was 0.67%, the NEUTROPHIL [2] was 6.67% and the “NUCLEATED RED BLOOD CELLS” value [2] was 0 /100WBC. For the same compound, the “PLATELET COUNT” value [2] was 1041.83 x10E3/uL, the “ALANINE AMINOTRANSFERASE” value [2] was 56 u/L and the ALBUMIN [2] was 4.47 G/DL. The “ALKALINE PHOSPHATASE” value [2] was 319 u/L, the “ASPARTATE AMINOTRANSFERASE” value [2] was 89.17 u/L and the “BLOOD UREA NITROGEN” value [2] was 15.2 mg/dL. For the same compound, the “CARBON DIOXIDE” value [2] was 24 mmol/L, the CHLORIDE [2] was 104.4 MEQ/L and the CHOLESTEROL [2] was 69.5 mg/dL. The “CREATINE PHOSPHOKINASE” value [2] was 295.83 u/L, the CREATININE [2] was 0.21 mg/dL and the GLUCOSE [2] was 124.33 mg/dL. For the same compound, the “LACTATE DEHYDROGENASE” value [2] was 325.5 u/L, the LIPASE [2] was 14.67 u/L and the PHOSPHORUS [2] was 11.45 mg/dL. The POTASSIUM [2] was 6.74 MEQ/L, the SODIUM [2] was 151.4 MEQ/L and the “TOTAL BILIRUBIN” value [2] was 0.23 mg/dL. The “TOTAL PROTEIN” value [2] was 6.45 G/DL, the “URIC ACID” value [2] was 1.18 mg/dL and the “ABSOLUTE BASOPHIL” value [3] was 0 CELLS/uL. The “ABSOLUTE EOSINOPHIL” value [3] was 0 CELLS/uL, the “ABSOLUTE LYMPHOCYTE” value [3] was 14994 CELLS/uL and the “ABSOLUTE MONOCYTE” value [3] was 0 CELLS/uL. For the same compound, the “ABSOLUTE SEGMENTED NEUTROPHIL” value [3] was 739.33 CELLS/uL, the BASOPHIL [3] was 0% and the EOSINOPHIL [3] was 0%. The “ERYTHROCYTE COUNT” value [3] was 5.48 x10E6/uL, the HEMATOCRIT [3] was 33.5% and the HEMOGLOBIN [3] was 13.33 G/DL. For the same compound, the “LEUKOCYTE COUNT” value [3] was 15.73 x10E3/uL, the “MEAN CORPUSCULAR HEMOGLOBIN” value [3] was 24.37 pg and the “MEAN CORPUSCULAR HEMOGLOBIN CONCENTRATION” value [3] was 39.87 G/DL. The “MEAN CORPUSCULAR VOLUME” value [3] was 61.1 fL, the MONOCYTE [3] was 0% and the NEUTROPHIL [3] was 4.67%. The “NUCLEATED RED BLOOD CELLS” value [3] was 0 /100WBC, the “PLATELET COUNT” value [3] was 1095.33 x10E3/uL and the “ALANINE AMINOTRANSFERASE” value [3] was 43.67 u/L. For the same compound, the ALBUMIN [3] was 4.2 G/DL, the “ALKALINE PHOSPHATASE” value [3] was 287 u/L and the “ASPARTATE AMINOTRANSFERASE” value [3] was 70.67 u/L. For the same compound, the “BLOOD UREA NITROGEN” value [3] was 13.33 mg/dL, the “CARBON DIOXIDE” value [3] was 23.67 mmol/L and the CHLORIDE [3] was 101 MEQ/L. For the same compound, the CHOLESTEROL [3] was 74 mg/dL, the “CREATINE PHOSPHOKINASE” value [3] was 350.33 u/L and the CREATININE [3] was 0.22 mg/dL. The GLUCOSE [3] was 176.67 mg/dL, the “LACTATE DEHYDROGENASE” value [3] was 113.33 u/L and the LIPASE [3] was 10.33 u/L. It also gave a PHOSPHORUS [3] of 11.93 mg/dL, a POTASSIUM [3] of 6.1 MEQ/L and an SODIUM [3] of 140.57 MEQ/L. For the same compound, the “TOTAL BILIRUBIN” value [3] was 0.17 mg/dL, the “TOTAL PROTEIN” value [3] was 6.13 G/DL and the “URIC ACID” value [3] was 2 mg/dL.
